# Reference: patent publication US20130217060A1 (Butamax(TM) Advanced Biofuels LLC, priority 2007, published 2013)
# Like-named read-outs stand apart in the source and are kept apart here.
# B1: BdhB protein: butanol dehydrogenase (SEQ ID NO:14) from C. acetobutylicum ATCC 824 expressed in E. coli (protein, listed as Clostridium acetobutylicum)
# chain: MVDFEYSIPTRIFFGKDKINVLGRELKKYGSKVLIVYGGGSIKRNGIYDKAVSILEKNSIKFYELAGVEPNPRVTTVEKGVKICRENGVEVVLAIGGGSAIDCAKVIAAACEYDGNPWDIVLDGSKIKRVLPIASILTIAATGSEMDTWAVINNMDTNEKLIAAHPDMAPKFSILDPTYTYTVPTNQTAAGTADIMSHIFEVYFSNTKTAYLQDRMAEALLRTCIKYGGIALEKPDDYEARANLMWASSLAINGLLTYGKDTNWSVHLMEHELSAYYDITHGVGLAILTPNWMEYILNNDTVYKFVEYGVNVWGIDKEKNHYDIAHQAIQKTRDYFVNVLGLPSRLRDVGIEEEKLDIMAKESVKLTGGTIGNLRPVNASEVLQIFKKSV
# B2: BdhA protein: butanol dehydrogenase (SEQ ID NO:16) from C. acetobutylicum 824 expressed in E. coli (protein, listed as Clostridium acetobutylicum)
# chain: MLSFDYSIPTKVFFGKGKIDVIGEEIKKYGSRVLIVYGGGSIKRNGIYDRATAILKENNIAFYELSGVEPNPRITTVKKGIEICRENNVDLVLAIGGGSAIDCSKVIAAGVYYDGDTWDMVKDPSKITKVLPIASILTLSATGSEMDQIAVISNMETNEKLGVGHDDMRPKFSVLDPTYTFTVPKNQTAAGTADIMSHTFESYFSGVEGAYVQDGIAEAILRTCIKYGKIAMEKTDDYEARANLMWASSLAINGLLSLGKDRKWSCHPMEHELSAYYDITHGVGLAILTPNWMEYILNDDTLHKFVSYGINVWGIDKNKDNYEIAREAIKNTREYFNSLGIPSKLREVGIGKDKLELMAKQAVRNSGGTIGSLRPINAEDVLEIFKKSY
# B3: crotonase protein: crotonase (SEQ ID NO:8) from C. acetobutylicum ATCC 824 expressed in E. coli (protein, listed as Clostridium acetobutylicum)
# chain: MELNNVILEKEGKVAVVTINRPKALNALNSDTLKEMDYVIGEIENDSEVLAVILTGAGEKSFVAGADISEMKEMNTIEGRKFGILGNKVFRRLELLEKPVIAAVNGFALGGGCEIAMSCDIRIASSNARFGQPEVGLGITPGFGGTQRLSRLVGMGMAKQLIFTAQNIKADEALRIGLVNKVVEPSELMNTAKEIANKIVSNAPVAVKLSKQAINRGMQCDIDTALAFESEAFGECFSTEDQKDAMTAFIEKRKIEGFKNR
# Experiments:
# [1] = system: Lactobacillus plantarum PN0512; experiment: Growth of L. plantarum PN0512 in the presence of butanols at different temperatures (OD600 for six hours); assay type: cell-based; set-up: key to Growth in the presence of 1-butanol / Growth in the presence of isobutanol / Growth in the presence of 2-butanol: “+” = growth observed as an increase in OD600.; “−” = no growth observed, i.e. no change in OD600
# [2] = system: Saccharomyces cerevisiae BY4741; details: for % Growth Inhibition: six hours
# Method: Tolerance levels were determined for yeast strain Saccharomyces cerevisiae BY4741 (described in Example 21) at 25° C. and 30° C. as follows. The strain was cultured in YPD medium. Overnight cultures in the absence of any test compound were started in 25 mL of YPD medium in 150 mL flasks with incubation at 30° C. or at 25° C. in shaking water baths. The next morning, each overnight culture was diluted into a 500 mL flask-containing 300 mL of fresh medium to an initial OD600 of about 0.1. The flasks were incubated in shaking water baths at 30° C. or 25° C., using the same temperature as used for each overnight culture. […] The ΔOD600 was calculated by subtracting the initial OD600 from the final OD600 at 6 hours. The percent growth inhibition relative to the control culture was calculated as follows: % Growth Inhibition=100−[100(Sample ΔOD600/Control ΔOD600)].
# acetoacetyl-CoA thiolase = experiment: Acetoacetyl-CoA thiolase activity in cell free extracts (absorbance 303 nm); details: cell free extract of arabinose-induced E. coli BL21-AI culture, one typical assay
# E. coli strain BW25113 = experiment: Survival of E. coli after 30 min MEK shock (colony counts); assay type: cell-based, Escherichia coli; details: for % Survival at 28° C. / % Survival at 37° C.: average of duplicate experiments
# [3] = molecular target: 3-hydroxybutyryl-CoA dehydrogenase (Clostridium acetobutylicum, UniProt P52041); experiment: Hydroxybutyryl-CoA dehydrogenase activity (NADH oxidation, 340 nm); details: induced E. coli BL21-AI culture, one typical assay
# Chain of 3-hydroxybutyryl-CoA dehydrogenase (P52041 whole entry): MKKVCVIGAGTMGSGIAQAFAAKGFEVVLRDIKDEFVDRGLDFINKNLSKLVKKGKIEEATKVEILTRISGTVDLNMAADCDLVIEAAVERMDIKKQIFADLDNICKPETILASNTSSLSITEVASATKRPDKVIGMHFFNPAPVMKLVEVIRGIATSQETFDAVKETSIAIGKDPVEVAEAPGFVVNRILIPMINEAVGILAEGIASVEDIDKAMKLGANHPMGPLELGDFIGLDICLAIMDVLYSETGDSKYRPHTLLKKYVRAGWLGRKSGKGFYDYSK
# butanol dehydrogenase = experiment: Butanol dehydrogenase activity (NADH oxidation, 340 nm); assay type: biochemical, Clostridium acetobutylicum; details: induced E. coli BL21-AI culture, one typical assay
# crotonase = molecular target: T1, crotonase (Clostridium acetobutylicum, UniProt P52046); experiment: Crotonase activity assay (Stern); assay type: biochemical; details: induced E. coli BL21-AI culture, one typical assay
# T1 construct: made in house; host or cells: E. coli BL21-AI (pDEST14crt); S. cerevisiae BY4741 (pNY11) and BY4743 (pNY103)
# Method: Crotonase activity was assayed as described by Stern (Methods Enzymol. 1, 559-566, (1954)).
# Enzyme assays were performed as described above.
molecule,measurement,setting,value
1-butanol,Growth in the presence of 1-butanol,"[1]; 1.0 % w/v, 37° C.",+
same,Growth in the presence of 1-butanol,"[1]; 1.2 % w/v, 37° C.",+
same,Growth in the presence of 1-butanol,"[1]; 1.4 % w/v, 37° C.",+
same,Growth in the presence of 1-butanol,"[1]; 1.5 % w/v, 25° C.",+
same,Growth in the presence of 1-butanol,"[1]; 1.5 % w/v, 30° C.",+
same,Growth in the presence of 1-butanol,"[1]; 1.5 % w/v, 37° C.",+
same,Growth in the presence of 1-butanol,"[1]; 1.6 % w/v, 37° C.",+
same,Growth in the presence of 1-butanol,"[1]; 1.8 % w/v, 37° C.",+
same,Growth in the presence of 1-butanol,"[1]; 2.0 % w/v, 25° C.",+
same,Growth in the presence of 1-butanol,"[1]; 2.0 % w/v, 30° C.",+
same,Growth in the presence of 1-butanol,"[1]; 2.0 % w/v, 37° C.",+
same,Growth in the presence of 1-butanol,"[1]; 2.1 % w/v, 37° C.",+
same,Growth in the presence of 1-butanol,"[1]; 2.2 % w/v, 37° C.",+
same,Growth in the presence of 1-butanol,"[1]; 2.3 % w/v, 37° C.",+
same,Growth in the presence of 1-butanol,"[1]; 2.4 % w/v, 25° C.",+
same,Growth in the presence of 1-butanol,"[1]; 2.4 % w/v, 30° C.",+
same,Growth in the presence of 1-butanol,"[1]; 2.4 % w/v, 37° C.",−
same,Growth in the presence of 1-butanol,"[1]; 2.7 % w/v, 30° C.",+
same,Growth in the presence of 1-butanol,"[1]; 2.7 % w/v, 37° C.",−
same,Growth in the presence of 1-butanol,"[1]; 2.9 % w/v, 25° C.",+
same,Growth in the presence of 1-butanol,"[1]; 2.9 % w/v, 30° C.",−
same,Growth in the presence of 1-butanol,"[1]; 2.9 % w/v, 37° C.",−
same,Growth in the presence of 1-butanol,"[1]; 3.1 % w/v, 25° C.",+
same,Growth in the presence of 1-butanol,"[1]; 3.1 % w/v, 30° C.",−
same,Growth in the presence of 1-butanol,"[1]; 3.1 % w/v, 37° C.",−
same,Growth in the presence of 1-butanol,"[1]; 3.2 % w/v, 25° C.",−
same,Growth in the presence of 1-butanol,"[1]; 3.2 % w/v, 30° C.",−
same,Growth in the presence of 1-butanol,"[1]; 3.3 % w/v, 25° C.",−
same,Growth in the presence of 1-butanol,"[1]; 3.4 % w/v, 25° C.",−
same,Growth in the presence of 1-butanol,"[1]; 3.4 % w/v, 30° C.",−
same,concentration in which growth was observed,[1]; 25° C.,3.1%
same,concentration in which growth was not observed,[1]; 30° C.,2.9%
same,concentration in which growth was observed,[1]; 30° C.,2.7%
same,concentration in which growth was not observed,[1]; 37° C.,2.4%
same,concentration in which growth was observed,[1]; 37° C.,2.3%
same,Growth in the presence of 1-butanol,"[1]; […] w/v, 37° C.",−
same,growth inhibition of strain BY4741 at 25° C. compared with 30° C.,[2]; 1% 1-butanol,less inhibited
same,% Growth Inhibition,"[2]; 1% 1-butanol, 25° C.",43%
same,% Growth Inhibition,"[2]; 1% 1-butanol, 30° C.",64%
same,% Growth Inhibition,"[2]; 2% 1-butanol, 25° C.",No growth
same,% Growth Inhibition,"[2]; 2% 1-butanol, 30° C.",No growth
CCC(C)O (centres unmarked) [2-butanol],Growth in the presence of 2-butanol,"[1]; 1.8 % w/v, 37° C.",+
same,Growth in the presence of 2-butanol,"[1]; 2.1 % w/v, 37° C.",+
same,Growth in the presence of 2-butanol,"[1]; 2.9 % w/v, 25° C.",+
same,Growth in the presence of 2-butanol,"[1]; 2.9 % w/v, 30° C.",+
same,Growth in the presence of 2-butanol,"[1]; 2.9 % w/v, 37° C.",+
same,Growth in the presence of 2-butanol,"[1]; 3.1 % w/v, 37° C.",+
same,Growth in the presence of 2-butanol,"[1]; 3.6 % w/v, 37° C.",+
same,Growth in the presence of 2-butanol,"[1]; 3.8 % w/v, 25° C.",+
same,Growth in the presence of 2-butanol,"[1]; 3.8 % w/v, 30° C.",+
same,Growth in the presence of 2-butanol,"[1]; 3.8 % w/v, 37° C.",+
same,Growth in the presence of 2-butanol,"[1]; 4.0 % w/v, 30° C.",+
same,Growth in the presence of 2-butanol,"[1]; 4.3 % w/v, 25° C.",+
same,Growth in the presence of 2-butanol,"[1]; 4.3 % w/v, 30° C.",+
same,Growth in the presence of 2-butanol,"[1]; 4.3 % w/v, 37° C.",+
same,Growth in the presence of 2-butanol,"[1]; 4.7 % w/v, 25° C.",+
same,Growth in the presence of 2-butanol,"[1]; 4.7 % w/v, 30° C.",+
same,Growth in the presence of 2-butanol,"[1]; 4.7 % w/v, 37° C.",−
same,Growth in the presence of 2-butanol,"[1]; 4.9 % w/v, 25° C.",+
same,Growth in the presence of 2-butanol,"[1]; 4.9 % w/v, 30° C.",−
same,Growth in the presence of 2-butanol,"[1]; 5.2 % w/v, 25° C.",+
same,Growth in the presence of 2-butanol,"[1]; 5.2 % w/v, 37° C.",−
same,Growth in the presence of 2-butanol,"[1]; 5.6 % w/v, 25° C.",−
same,Growth in the presence of 2-butanol,"[1]; 5.6 % w/v, 37° C.",−
same,Growth in the presence of 2-butanol,"[1]; 6.0 % w/v, 37° C.",−
same,Growth in the presence of 2-butanol,"[1]; 6.4 % w/v, 37° C.",−
same,Growth in the presence of 2-butanol,"[1]; 7.3 % w/v, 37° C.",−
same,concentration in which growth was observed,[1]; 25° C.,5.2%
same,concentration in which growth was not observed,[1]; 30° C.,4.9%
same,concentration in which growth was observed,[1]; 30° C.,4.7%
same,concentration in which growth was not observed,[1]; 37° C.,4.5%
same,concentration in which growth was observed,[1]; 37° C.,4.3%
same,Growth in the presence of 2-butanol,"[1]; […] w/v, 30° C.",+
ThIA protein: acetoacetyl-CoA thiolase (SEQ ID NO:2) from C. acetobutylicum ATCC 824 expressed in E. coli,specific activity (acetoacetyl-CoA thiolase),acetoacetyl-CoA thiolase,16.0 µmol/mg/min
"CCC(C)=O [MEK, 2-butanone]",% Survival at 28° C.,E. coli strain BW25113; MEK 4 % w/v,100%
same,% Survival at 37° C.,E. coli strain BW25113; MEK 4 % w/v,100%
same,% Survival at 28° C.,E. coli strain BW25113; MEK 6 % w/v,100%
same,% Survival at 37° C.,E. coli strain BW25113; MEK 6 % w/v,0%
same,% Survival at 28° C.,E. coli strain BW25113; MEK 8 % w/v,0.002%
same,% Survival at 37° C.,E. coli strain BW25113; MEK 8 % w/v,0%
same,concentration with full survival,E. coli strain BW25113; exposure at 28° C.,6 % w/v
same,concentration with full survival,E. coli strain BW25113; exposure at 37° C.,4 % w/v
same,concentration with no survival,E. coli strain BW25113; exposure at 37° C.,6 % w/v
CC(C)CO [isobutanol],Growth in the presence of isobutanol,"[1]; 3.3 % w/v, 30° C.",−
BHBD protein: 3-hydroxybutyryl-CoA dehydrogenase (SEQ ID NO:6) from C. acetobutylicum ATCC 824 expressed in E. coli,specific activity (hydroxybutyryl-CoA dehydrogenase),[3],57.4 µmol/mg/min
ThIB protein: acetoacetyl-CoA thiolase (SEQ ID NO:4) from C. acetobutylicum ATCC 824 expressed in E. coli,specific activity (acetoacetyl-CoA thiolase),acetoacetyl-CoA thiolase,14.9 µmol/mg/min
B1,specific activity (butanol dehydrogenase),butanol dehydrogenase,0.169 µmol/mg/min
B2,specific activity (butanol dehydrogenase),butanol dehydrogenase,0.102 µmol/mg/min
B3,specific activity (crotonase),crotonase,444 µmol/mg/min
